From patent publication US20250089717A1, “FUNGICIDAL HALOMETHYL KETONES, HYDRATES AND ENOL ETHERS AND THEIR MIXTURES” (FMC CORPORATION, priority 2023, published 2025)
Where “and” joins values, the source holds several entries; their conditions need not be identical. Equal entries are not always repeated.

test system: Phakopsora pachyrhizi; assay: Test A: preventive spray on soybean seedlings, Asian soybean rust, visual disease rating; format: in vivo; conditions: rate 10 ppm
Text: General protocol for preparing test suspensions for Test A: the test compounds were first dissolved in acetone in an amount equal to 3% of the final volume and then suspended at the desired concentration (in ppm) in acetone and purified water (50/50 mix by volume) containing 250 ppm of the surfactant PEG400 (polyhydric alcohol esters). The resulting test suspensions were then used in Test A.
The test solution was sprayed to the point of run-off on soybean seedlings. The following day the seedlings were inoculated with a spore suspension of Phakopsora pachyrhizi (the causal agent of Asian soybean rust) and incubated in a saturated atmosphere at 22° C. for 24 h and then moved to a growth chamber at 22° C. for 8 days, after which time visual disease ratings were made.
A rating of 100 indicates 100% disease control and a rating of 0 indicates no disease control (relative to the controls).

| SMILES | Test A rating (100 = 100% disease control, 0 = no disease control relative to the controls) |
| --- | --- |
| CCO/C(=C\Oc1ccc(Cn2cc(COC(=O)CC#N)nn2)cc1)C(F)(F)F [Compound 9] | 0% |
| CCO/C(=C\Oc1ccc(Cn2cc(COC(=O)COC)nn2)cc1)C(F)(F)F [Compound 10] | 0% |
| CCO/C(=C\Oc1ccc(Cn2cc(COC(=O)CC(F)(F)F)nn2)cc1)C(F)(F)F [Compound 11] | 0% |
| CCO/C(=C\Oc1ccc(Cn2cc(COC(=O)C3CCCC3)nn2)cc1)C(F)(F)F [Compound 12] | 79% |
| CCO/C(=C\Oc1ccc(Cn2cc(COC(C)=O)nn2)cc1)C(F)(F)F [Compound 37] | 100% |
| C#CCOCc1cn(Cc2ccc(O/C=C(\OCC)C(F)(F)F)cc2)nn1 [Compound 38] | 78% and 88% |
| CCO/C(=C\Oc1ccc(Cn2cc(COC(=O)C(=O)OC)cn2)cc1)C(F)(F)F [Compound 48, 1-[[1-[[4-[[(1Z)-2-ethoxy-3,3,3-trifluoro-1-propen-1-yl]oxy]phenyl]methyl]-1H-pyrazol-4-yl]methyl]2-methyl ethanedioate] | 100% |
| CCO/C(=C\Oc1ccc(Cn2cc(COC(=O)OC)cn2)cc1)C(F)(F)F [Compound 52, 1-[[4-[[(1Z)-2-ethoxy-3,3,3-trifluoro-1-propen-1-yl]oxy]phenyl]methyl]-1H-pyrazol-4-yl]methyl methyl carbonate] | 100% |
| C=CCON(CC)C(=O)c1cnn(Cc2ccc(O/C=C(\OCC)C(F)(F)F)cc2)c1 [Compound 55, ethyl 1-[[4-[[(1Z)-2-ethoxy-3,3,3-trifluoro-1-propen-1-yl]oxy]phenyl]methyl]-N-(2-propen-1-yloxy)-1H-pyrazole-4-carboxamide] | 100% |
| CCO/C(=C\Oc1ccc(Cn2cc(COCC3CC3)cn2)c(F)c1)C(F)(F)F [Compound 68] | 100% |

same assay, conditions: rate 10 ppm, read-out: Test A rating (100 = 100% disease control, 0 = no disease control relative to the controls)

| SMILES | pest or weed control at 10 ppm [%] |
| --- | --- |
| O=C(OCc1cnn(Cc2ccc(OCC3(C(F)(F)F)OCCO3)cc2)c1)C1CCCC1 [Compound 4, [1-[[4-[[2-(trifluoromethyl)-1,3-dioxolan-2-yl]methoxy]phenyl]methyl]-1H-pyrazol-4-yl]methyl cyclopentanecarboxylate] | 90 |
| CCOC(=S)c1cnn(Cc2ccc(O/C=C(\OCC)C(F)(F)F)cc2)c1 [Compound 7, O-ethyl 1-[[4-[[(1Z)-2-ethoxy-3,3,3-trifluoro-1-propen-1-yl]oxy]phenyl]methyl]-1H-pyrazole-4-carbothioate] | 100 |
| CCO/C(=C\Oc1ccc(Cn2cc(COC(=O)N(C)OC)cn2)cc1)C(F)(F)F [Compound 18, (Z)-(1-(4-((2-ethoxy-3,3,3-trifluoroprop-1-en-1-yl)oxy)benzyl)-1H-pyrazol-4-yl)methyl methoxy(methyl)carbamate] | 100 |
| CCO/C(=C\Oc1ccc(Cn2cc(COC(=O)CC)cn2)cc1)C(F)(F)F [Compound 21, [1-[[4-[[(1Z)-2-ethoxy-3,3,3-trifluoro-1-propen-1-yl]oxy]phenyl]methyl]-1H-pyrazol-4-yl]methyl propanoate] | 100 |
| CCO/C(=C\Oc1ccc(Cn2cc(COC(C)=O)cn2)cc1)C(F)(F)F [Compound 22, [1-[[4-[[(1Z)-2-ethoxy-3,3,3-trifluoro-1-propen-1-yl]oxy]phenyl]methyl]-1H-pyrazol-4-yl]methyl acetate] | 100 |
| CCO/C(=C\Oc1ccc(Cn2cc(COC(=O)COC)cn2)cc1)C(F)(F)F [Compound 23, [1-[[4-[[(1Z)-2-ethoxy-3,3,3-trifluoro-1-propen-1-yl]oxy]phenyl]methyl]-1H-pyrazol-4-yl]methyl 2-methoxyacetate] | 100 |
| CCO/C(=C\Oc1ccc(Cn2cc(COC(=O)CC(C)C)cn2)cc1)C(F)(F)F [Compound 27, [1-[[4-[[(1Z)-2-ethoxy-3,3,3-trifluoro-1-propen-1-yl]oxy]phenyl]methyl]-1H-pyrazol-4-yl]methyl 3-methylbutanoate] | 100 |
| CCCC(C)C(=O)OCc1cnn(Cc2ccc(O/C=C(\OCC)C(F)(F)F)cc2)c1 (stereo not drawn) [Compound 30, [1-[[4-[[(1Z)-2-ethoxy-3,3,3-trifluoro-1-propen-1-yl]oxy]phenyl]methyl]-1H-pyrazol-4-yl]methyl 2-methylpentanoate] | 100 |
| CCO/C(=C\Oc1ccc(Cn2cc(C(=O)NOCc3ccccc3)cn2)cc1)C(F)(F)F [Compound 31, 1-[[4-[[(1Z)-2-ethoxy-3,3,3-trifluoro-1-propen-1-yl]oxy]phenyl]methyl]-N-(phenylmethoxy)-1H-pyrazole-4-carboxamide] | 100 |
| CCO/C(=C\Oc1ccc(Cn2cc(COC(=O)CC(F)(F)F)cn2)cc1)C(F)(F)F [Compound 35, [1-[[4-[[(1Z)-2-ethoxy-3,3,3-trifluoro-1-propen-1-yl]oxy]phenyl]methyl]-1H-pyrazol-4-yl]methyl 3,3,3-trifluoropropanoate] | 100 |
| C=CCON=C(OCC)c1cnn(Cc2ccc(O/C=C(\OCC)C(F)(F)F)cc2)c1 [Compound 40, ethyl 1-[[4-[[(1Z)-2-ethoxy-3,3,3-trifluoro-1-propen-1-yl]oxy]phenyl]methyl]-N-(2-propen-1-yloxy)-1H-pyrazole-4-carboximidate] | 100 |
| CCO/C(=C\Oc1ccc(Cn2cc(C(=O)NOCC(F)(F)F)cn2)cc1)C(F)(F)F [Compound 45, 1-[[4-[[(1Z)-2-ethoxy-3,3,3-trifluoro-1-propen-1-yl]oxy]phenyl]methyl]-N-(2,2,2-trifluoroethoxy)-1H-pyrazole-4-carboxamide] | 100 |
| CCO/C(=C\Oc1ccc(Cn2cc(COC(=O)C(C)C)cn2)cc1)C(F)(F)F [Compound 46, [1-[[4-[[(1Z)-2-ethoxy-3,3,3-trifluoro-1-propen-1-yl]oxy]phenyl]methyl]-1H-pyrazol-4-yl]methyl 2-methylpropanoate] | 100 |
| CCO/C(=C\Oc1ccc(Cn2cc(COC(=O)C(C)(C)C)cn2)cc1)C(F)(F)F [Compound 47, [1-[[4-[[(1Z)-2-ethoxy-3,3,3-trifluoro-1-propen-1-yl]oxy]phenyl]methyl]-1H-pyrazol-4-yl]methyl 2,2-dimethylpropanoate] | 100 |
| CCO/C(=C\Oc1ccc(Cn2cc(COC(=O)CCSC)cn2)cc1)C(F)(F)F [Compound 50, [1-[[4-[[(1Z)-2-ethoxy-3,3,3-trifluoro-1-propen-1-yl]oxy]phenyl]methyl]-1H-pyrazol-4-yl]methyl 3-(methylthio)propanoate] | 100 |
| CCOC(=O)C(OC(C)=O)c1cnn(Cc2ccc(O/C=C(\OCC)C(F)(F)F)cc2)c1 (stereo not drawn) [Compound 54, ethyl α-(acetyloxy)-1-[[4-[[(1Z)-2-ethoxy-3,3,3-trifluoro-1-propen-1-yl]oxy]phenyl]methyl]-1H-pyrazole-4-acetate] | 100 |

same assay, conditions: rate 50 ppm, read-out: Test A rating (100 = 100% disease control, 0 = no disease control relative to the controls)

| SMILES | pest or weed control at 50 ppm [%] |
| --- | --- |
| CCO/C(=C\Oc1ccc(Cn2cc(CC(=O)N(C)OC)cn2)cc1)C(F)(F)F [Compound 5, 1-[[4-[[(1Z)-2-ethoxy-3,3,3-trifluoro-1-propen-1-yl]oxy]phenyl]methyl]-N-methoxy-N-methyl-1H-pyrazole-4-acetamide] | 94 |
